{"source": "patent US20070225363A1", "about": "“Methods and Agents for Inhibiting Dynamin-Dependent Endocytosis” (the University of Newcastle Research Associates Ltd., priority 2003, published 2007)", "key": {"ΔPH domain dynamin I": {"test_system": "ΔPH domain dynamin I", "assay": "GTPase assay with recombinant dynamin I lacking the PH domain", "format": "biochemical", "procedure": "The plasmid for GST-Amph2-SH3 (muscle Amph2) (Butler et al., 1997) was provided by Pieto DeCamilli, Yale, Connecticut, USA, in pGEX2T vectors. The plasmid was grown in E. coli and the GST-Amph2-SH3 fusion protein was purified on glutathione (GSH)-Sepharose by elution with 10 mM reduced GSH in 20 mM Tris-HCl, pH 7.5, dialysed against the same buffer without GSH and stored at 4° C. Dynamin was purified from sheep brain by extraction from the peripheral membrane fraction of whole brain (Robinson et al., 1993) and affinity purification on GST-Amph2-SH3-sepharose as previously described (Marks and McMahon., 1998), yielding 8 mg protein from 250 g sheep brain. Recombinant dynamin II was expressed in insect cells and was a gift from Dr Sandra Schmid (Scripps, San Diego, Calif.). Recombinant dynamin I lacking the PH domain (dynamin PH, provided by Robin Scaife) was expressed in insect cells using baculoviral infection (Salim et al., 1996).\nDynamin GTPase activity was determined by hydrolysis of [ ? -^32P]GTP by a method modified from that described previously (Robinson et al., 1993). Briefly, purified dynamin I or dynamin II (0.2 μg/tube) was incubated in GTPase buffer (10 mM Tris, 10 mM NaCl, 2 mM Mg^2+, 0.05% Tween 80, pH 7.4, 1 μg/ml leupeptin and 0.1 mM PMSF) and a GTP cocktail containing 0.3 mM GTP and 1.3 μCi [ ? -^32P]-GTP in the presence or absence of varying concentrations of inhibitors or DMSO vehicle for 10 min at 30 C. The final assay volume was 40 μl. Dynamin activity was measured as either basal or phospholipid-stimulated with the addition of 5 μg/ml L-phosphatidylserine. The reaction was terminated with 100 μl of GTPase stop buffer (2% formic add, 8% acetic acid, pH 1.9), followed by 600 μl of acid-washed charcoal solution (7% charcoal in acidic solution (w/v)) and 100 μl BSA (5 mg/ml). After centrifuging for 5 min (13,000 rpm at room temperature), 200 μl of each supernatant was counted in a -counter for the release of ^32Pi from [ ? -^32P]-GTP. […]"}, "dynamin II": {"test_system": "dynamin II", "assay": "[α-32P]-GTP binding assay, dynamin II", "procedure": "The [α-^32P]-GTP-binding assay was performed in the wells of a 96-well microtitre plate. Dynamin (0.2 μg/well) was added to GTPase buffer and incubated for 10 min at 4 C in the dark. [α-^32P]-GTP (2 μCi/tube) was then added to the reaction and incubated for a further 10 min at 4 C. in the dark. The microtitre plate was then irradiated with a short wavelength ultraviolet lamp at […] for 30 min at a distance of 8 cm. The specificity of photolabelling was determined by comparing the labelling in the presence and absence of 1 mM cold GTP. Samples were then applied to nitrocellulose membranes by aspiration through the wells of a 24 well slot blotter. The nitrocellulose was washed 3 times with PBS and dried. Bound nucleotide was detected by a phosphorimager (Molecular Dynamics)."}, "[1]": {"test_system": "isolated rat brain nerve terminals (synaptosomes)", "assay": "Electron microscopy of synaptosomes", "format": "cell-based", "settings": "100 μM", "procedure": "Synaptosomes were incubated for 5 min in Krebs-like solution containing 1.2 mM Ca^2+ then stimulated with 30 mM KCl for 2 minutes. […] After stimulation, synaptosomes were pelleted in a microfuge for 1 minute at room temperature then fixed by gentle resuspension in ice-cold phosphate buffered saline supplemented with 5% glutaraldehyde. After 1 hr they were centrifuged at low speed (2500 rpm) for 5 min at room temperature to loosely pellet the synaptosomes. The pellets were washed gently 3 times with MOPs buffer with low spins (2500 rpm) for 7 minutes then gently resuspended in a 10% bourine serum albumin (BSA) in water and allowed to stand for 20 min at room temperature. The synaptosomes were then centrifuged again for 7 minutes at low speed (2500 rpm), overlaid with Karnovsky's fixative and incubated at 4° C. overnight. The pellets were subsequently rinsed and fixed in a buffered solution of osmium tetroxide for 3 hours. Synaptosomes were then rinsed and stained for 1 hour in 2% aqueous uranyl acetate prior to being dried by a series of sequential 10 minute washes: 50% ethanol plus 0.1% NaCl, 70% ethanol plus 0.1% NaCl, 95% ethanol plus 0.1% NaCl, 100% ethanol plus 0.1% NaCl twice and 100% acetone twice. […]"}, "Ras": {"test_system": "Ras", "assay": "[α-32P]-GTP binding to small G protein Ras", "settings": "data not shown", "procedure": "Competition of these drugs with GTP for the active site of 4 small G proteins (Rab3A, Ras, Arf2, RalA) was also tested."}}, "note": "Entries after “also recorded” stand apart in the source; their conditions may differ."}
{"smiles": "N#C/C(=C\\c1ccc(O)c(O)c1)C(=O)NCCCNC(=O)/C(C#N)=C/c1ccc(O)c(O)c1", "note": "[bis-tyrphostin]", "values": [{"measurement": "ability to inhibit GTPase activity of dynamin I lacking the PH domain", "setting": "ΔPH domain dynamin I", "value": "still inhibits"}, {"measurement": "inhibition of ΔPH domain dynamin I GTP hydrolysis", "setting": "ΔPH domain dynamin I; at 10 μM", "value": "more than 50%"}, {"measurement": "[α-32P]-GTP binding to dynamin II in the presence of drug", "setting": "dynamin II", "value": "not seen to decrease; also recorded: not affected"}, {"measurement": "morphology of depolarised synaptosomes", "setting": "[1]; depolarised with KCl", "value": "massive depletion of synaptic vesicles"}, {"measurement": "morphology of unstimulated synaptosomes", "setting": "[1]; unstimulated", "value": "no effect on their morphology"}, {"measurement": "effect on [α-32P]-GTP binding to Ras", "setting": "Ras", "value": "neither drug affected"}]}
